Results from publication PMC10709440, “High-throughput ligand profile characterization in novel cell lines expressing seven heterologous insect olfactory receptors for the detection of volatile plant biomarkers” (Scientific Reports, 2023).
Where two headings read alike, the source gives them in different places.

Assays:
OR13a [1] = conditions: Bactrocera dorsalis OR13a in HEK293 cells; read-out: EC50 in fluorescent measurements; cited from earlier work
OR13a [2] = conditions: Bactrocera dorsalis OR13a; read-out: EC50 in electrophysiology; cited from earlier work
Drosophila OR49b = molecular target: T1, Drosophila OR49b (Drosophila melanogaster, UniProt Q9V6H2); experiment: cell-based; set-up: GCaMP6 calcium fluorescence in stable HEK293 OR+ORCO lines; peak dF normalised to 50 uM VUAA1 (=1); conditions: HEK293; relative to 50 uM VUAA1 response; below 0.05 set to 0; read-out: % activation
T1 construct: expressed in transfected cells
T1 sequence (Q9V6H2 1-375): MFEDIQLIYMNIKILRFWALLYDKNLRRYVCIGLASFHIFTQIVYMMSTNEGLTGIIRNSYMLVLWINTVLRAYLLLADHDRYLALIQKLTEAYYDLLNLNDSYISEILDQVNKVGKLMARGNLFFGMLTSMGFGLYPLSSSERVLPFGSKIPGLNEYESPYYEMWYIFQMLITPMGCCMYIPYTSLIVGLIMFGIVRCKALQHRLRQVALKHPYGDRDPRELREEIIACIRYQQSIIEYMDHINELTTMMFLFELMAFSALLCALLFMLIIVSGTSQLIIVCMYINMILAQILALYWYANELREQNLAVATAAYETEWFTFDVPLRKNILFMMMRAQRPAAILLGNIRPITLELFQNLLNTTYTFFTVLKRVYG
T1 sequence (Q9VNB5 1-486 partner): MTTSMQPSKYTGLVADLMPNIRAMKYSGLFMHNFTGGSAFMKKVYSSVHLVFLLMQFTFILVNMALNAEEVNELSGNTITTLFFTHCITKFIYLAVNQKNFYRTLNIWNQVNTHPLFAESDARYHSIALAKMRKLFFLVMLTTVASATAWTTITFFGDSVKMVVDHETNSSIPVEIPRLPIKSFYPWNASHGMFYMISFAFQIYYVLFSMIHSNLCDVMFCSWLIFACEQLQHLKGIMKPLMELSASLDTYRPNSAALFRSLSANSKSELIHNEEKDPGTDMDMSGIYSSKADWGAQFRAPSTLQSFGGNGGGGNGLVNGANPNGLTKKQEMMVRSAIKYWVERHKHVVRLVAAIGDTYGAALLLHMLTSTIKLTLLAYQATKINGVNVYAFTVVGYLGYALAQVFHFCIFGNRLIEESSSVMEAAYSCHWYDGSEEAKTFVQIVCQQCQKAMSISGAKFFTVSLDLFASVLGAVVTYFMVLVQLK
Outline: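 Responses to VOCs (1, 10, 100 µM final) were read as fluorescence rise over baseline for 30 s in cells expressing the OR after 48–72 h doxycycline induction, in pH 7.3 buffer. ΔF values were divided by the same line's mean ΔF to 50 µM VUAA1 on that plate. Data are means of replicate days.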

In the case of `C=CC(O)CCCCC` (centres unmarked) [1-octen-3-ol], the EC50 (OR13a [1]) is given as 11.3 µM and the EC50 (OR13a [2]) is given as 1.27 µM.
For `CC/C=C/CCO` [e3-hexenol], the activity at 1 µM (Drosophila OR49b) was 0%, the activity at 10 µM (Drosophila OR49b) was 0% and the activity at 100 µM (Drosophila OR49b) was 7.89%.
